# Test results taken from patent US8648111B2, “N1-2-thiophene-2-ylethyl-N2-substituted biguanide derivate, preparation method thereof, and pharmaceutical composition containing the same as active ingredients” (Hanall Biopharma Co., Ltd., priority 2008, dated 2014).
# “And” between values parts separate entries of the source, which are not always exact repeats. Equal values may be shown once.
# Experiments:
# Type in all cases: cell-based
# HepG2 cells [1] = assay: Measurement of cholesterol synthesis inhibitory ability (cholesterol content in cell lysates, Amplex red); conditions: HepG2; for Cholesterol (100 uM) Aver.: 100 uM compound; for Cholesterol (100 uM) Aver. / Cholesterol (500 uM) Aver.: 24 hours, lower value = stronger cholesterol synthesis inhibition; for Cholesterol (500 uM) Aver.: 500 uM compound
# Experimental: (§1) 2 mM metformin was used as a comparative compound for each of the plates (control group).
# A cholesterol synthesis inhibitory ability, which is an important function of AMPK (AMP-activated protein kinase), was measured using HepG2 cells (ATCC: American Type Culture Collection) as a hepatic cell model according to the following procedure.
# The hepatic cell model HepG2 cells were cultured in 1% serum-containing media (DMEM (Gibco), FBS (Gibco)) for 24 hours, and then treated with 100 μM or 500 μM of each of the compounds prepared in Examples for 24 hours. Then, the cells were disrupted with a lysis solution (0.1 M potassium phosphate, pH 7.4, 0.05 M NaCl, 5 mM cholic acid, 0.1% Triton X-100 (Sigma)). To the disrupted cells was added the same volume of a reaction solution (2 U/mL of a cholesterol oxidizing agent, 2 U/mL of a peroxidase, 0.2 U/mL of a cholesterol esterase, and 300 μM of Amplex red as a fluorescent factor (Molecular Probe)), which was allowed to react at 37° C. for 30 minutes. After completion of the reaction, the content of cholesterol formed in the cell lysates was measured at a wavelength of 560/590 nm (ex/em) using a fluorescence microscope.
# A lower measurement value means an increased cholesterol synthesis inhibitory ability.
# HepG2 cells [2] = assay: Measurement of triglyceride (triglyceride content in cell lysates, Amplex red); conditions: HepG2; for Triglyceride (100 uM) Aver.: 100 uM compound; for Triglyceride (100 uM) Aver. / Triglyceride (500 uM) Aver.: 24 hours, lower value = stronger triglyceride synthesis inhibition; for Triglyceride (500 uM) Aver.: 500 uM compound
# Experimental: as §1
# HepG2 cells (ATCC: American Type Culture Collection) were cultured in 1% serum-containing media (DMEM (Gibco), FBS (Gibco)) for 24 hours, and then treated with 100 μM or 500 μM of each of the compounds prepared in Examples for 24 hours. Then, the cells were disrupted with a lysis solution (0.1 M potassium phosphate, pH 7.4, 0.05 M NaCl, 5 mM cholic acid, 0.1% Triton X-100). […] After completion of the reaction, the content of triglyceride formed in the cell lysates was measured at a wavelength of 560/590 nm (ex/em) using a fluorescence microscope.
# A lower measurement value means an increased triglyceride synthesis inhibitory ability.
# HepG2 cells [3] = assay: Measurement of gluconeogenesis inhibitory ability (14C-lactate, glucose formed in cells); conditions: HepG2; for Gluconeogenesis inhibition (100 uM) Aver.: 100 uM compound, 24 hours, lower value = stronger gluconeogenesis inhibition
# Experimental: as §1
# HepG2 cells (ATCC: American Type Culture Collection) were cultured in 10% serum-containing high glucose media, transferred to no serum-containing low glucose media (DMEM (Gibco), FBS (Gibco)), and then treated with 100 μM of each of the compounds for 24 hours. Then, the cells were treated with 0.5 μCi ^14C-lactate (Amersham Pharmacia) and 10 mM L-lactate (Sigma), and cultured for 4 hours. After cultivation, the media were removed therefrom, and the cells were washed with PBS, treated with 0.1N NaOH and kept at room temperature for 1 hour. Then, the cells were neutralized with 1N HCl, and the content of glucose formed in the cells was measured with a liquid scintillation counter.
# A lower measurement value means an increased gluconeogenesis inhibitory ability.
# C2C12 cells = assay: Measurement of glucose absorption ability (3H-deoxy-glucose uptake with insulin); conditions: 100 uM compound with 1 μM insulin, 24 hours, differentiated C2C12, higher value = stronger, more than 200% counts as glucose absorption ability
# Experimental: as §1
# C2C12 cells (ATCC: American Type Culture Collection), a muscle cell model, were induced to differentiate into muscle cells in 2% bovine fetal serum-containing media (DMEM (Gibco), FBS (Gibco)) for 6 days. The C2C12 cells which differentiated into muscle cells were transferred to serum-free low glucose media (DMEM (Gibco), FBS (Gibco)), treated with 100 μM of each of the compounds, and then cultured with 1 μM of insulin for 24 hours. After cultivation, the cells were treated with 1 μCi ^3H-deoxy-glucose (Amersham Pharmacia) and 10 μM deoxy-glucose (Sigma) at 37° C. for 15 minutes. The media were removed therefrom, and the cells were washed twice with PBS (phosphate buffered saline). The washed cells were treated with 0.1N NaOH and neutralized with 1N HCl. The content of glucose absorbed into the cells was measured with a liquid scintillation counter.
# A higher measurement value means a stronger ability to reduce insulin resistance.
# [4] = Metformin 2 mM, control group of each plate
structure (smiles),measurement,setting,value
"CCCCN=C(NCCc1cccs1)NC(=N)N.Cl [Example 26, N1-2-(thiophen-2-ylethyl)-N2-butyl biguanide hydrochloride (isomer)]",Cholesterol (100 uM) Aver.,HepG2 cells [1],43.20
same,Cholesterol (500 uM) Aver.,HepG2 cells [1],13.28
same,Triglyceride (100 uM) Aver.,HepG2 cells [2],47.59
same,Triglyceride (500 uM) Aver.,HepG2 cells [2],30.67
same,Gluconeogenesis inhibition (100 uM) Aver.,HepG2 cells [3]; 100 µM,81.70
same,Glucose absorption (100 uM) Aver.,C2C12 cells,18.34%
"COc1ccc(N=C(NCCc2cccs2)NC(=N)N)cc1.Cl [Example 30, N1-2-(thiophen-2-ylethyl)-N2-(4-methoxyphenyl) biguanide hydrochloride (isomer)]",Cholesterol (100 uM) Aver.,HepG2 cells [1],73.64
same,Cholesterol (500 uM) Aver.,HepG2 cells [1],26.15
same,Triglyceride (100 uM) Aver.,HepG2 cells [2],91.91
same,Triglyceride (500 uM) Aver.,HepG2 cells [2],48.42
same,Gluconeogenesis inhibition (100 uM) Aver.,HepG2 cells [3]; 100 µM,105.18
same,Glucose absorption (100 uM) Aver.,C2C12 cells,148.42%
"Cl.N=C(N)NC(=Nc1cccc(C(F)(F)F)c1)NCCc1cccs1 [Example 14, N1-2-(thiophen-2-ylethyl)-N2-(3-trifluoromethyl)phenyl biguanide hydrochloride]",Cholesterol (100 uM) Aver.,HepG2 cells [1],23.3
same,Cholesterol (500 uM) Aver.,HepG2 cells [1],41.4
same,Triglyceride (100 uM) Aver.,HepG2 cells [2],11.8
same,Triglyceride (500 uM) Aver.,HepG2 cells [2],13.2
same,Gluconeogenesis inhibition (100 uM) Aver.,HepG2 cells [3],8.75
same,Glucose absorption (100 uM) Aver.,C2C12 cells,4.38%
"Cl.N=C(N)NC(=Nc1ccc(-c2ccccc2)cc1)NCCc1cccs1 [Example 35, N1-2-(thiophen-2-ylethyl)-N2-(4-phenylphenyl) biguanide hydrochloride]",Cholesterol (100 uM) Aver.,HepG2 cells [1],28.27
same,Cholesterol (500 uM) Aver.,HepG2 cells [1],30.49
same,Triglyceride (100 uM) Aver.,HepG2 cells [2],18.94
same,Triglyceride (500 uM) Aver.,HepG2 cells [2],14.92
same,Gluconeogenesis inhibition (100 uM) Aver.,HepG2 cells [3],109.62
same,Glucose absorption (100 uM) Aver.,C2C12 cells,35.00%
"COc1cc(N=C(NCCc2cccs2)NC(=N)N)cc(OC)c1OC.Cl [Example 17, N1-2-(thiophen-2-ylethyl)-N2-(3,4,5-trimethoxy)phenyl biguanide hydrochloride]",Cholesterol (100 uM) Aver.,HepG2 cells [1],87.2
same,Cholesterol (500 uM) Aver.,HepG2 cells [1],57.5
same,Triglyceride (100 uM) Aver.,HepG2 cells [2],86.2
same,Triglyceride (500 uM) Aver.,HepG2 cells [2],79.4
same,Gluconeogenesis inhibition (100 uM) Aver.,HepG2 cells [3],95.56
same,Glucose absorption (100 uM) Aver.,C2C12 cells,165.2%
"CCCCCCc1ccc(N=C(NCCc2cccs2)NC(=N)N)cc1.Cl [Example 29, N1-2-(thiophen-2-ylethyl)-N2-(4-hexylphenyl) biguanide hydrochloride]",Cholesterol (100 uM) Aver.,HepG2 cells [1],30.10
same,Cholesterol (500 uM) Aver.,HepG2 cells [1],119.39
same,Triglyceride (100 uM) Aver.,HepG2 cells [2],8.04
same,Triglyceride (500 uM) Aver.,HepG2 cells [2],42.57
same,Gluconeogenesis inhibition (100 uM) Aver.,HepG2 cells [3],1.26
same,Glucose absorption (100 uM) Aver.,C2C12 cells,3.96%
"CC(C)CN=C(NCCc1cccs1)NC(=N)N.Cl [Example 42, -2-(thiophen-2-ylethyl)-N2-isobutyl biguanide hydrochloride]",Cholesterol (100 uM) Aver.,HepG2 cells [1],89.11
same,Cholesterol (500 uM) Aver.,HepG2 cells [1],73.15
same,Triglyceride (100 uM) Aver.,HepG2 cells [2],97.66
same,Triglyceride (500 uM) Aver.,HepG2 cells [2],88.50
same,Gluconeogenesis inhibition (100 uM) Aver.,HepG2 cells [3],99.91
same,Glucose absorption (100 uM) Aver.,C2C12 cells,171.92%
"COc1cc(N=C(NCCc2cccs2)NC(=N)N)cc(OC)c1.Cl [Example 32, N1-2-(thiophen-2-ylethyl)-N2-(3,5-dimethoxyphenyl) biguanide hydrochloride]",Cholesterol (100 uM) Aver.,HepG2 cells [1],48.02
same,Cholesterol (500 uM) Aver.,HepG2 cells [1],26.70
same,Triglyceride (100 uM) Aver.,HepG2 cells [2],70.80
same,Triglyceride (500 uM) Aver.,HepG2 cells [2],28.47
same,Gluconeogenesis inhibition (100 uM) Aver.,HepG2 cells [3],152.19
same,Glucose absorption (100 uM) Aver.,C2C12 cells,11.68%
"Cl.N=C(N)NC(=Nc1cccc2ccccc12)NCCc1cccs1 [Example 3, N1-2-(thiophen-2-ylethyl)-N2-1-naphthyl biguanide hydrochloride]",Cholesterol (100 uM) Aver.,HepG2 cells [1],30.90
same,Cholesterol (500 uM) Aver.,HepG2 cells [1],31.14
same,Triglyceride (100 uM) Aver.,HepG2 cells [2],5.28
same,Triglyceride (500 uM) Aver.,HepG2 cells [2],−6.37
same,Gluconeogenesis inhibition (100 uM) Aver.,HepG2 cells [3],3.73
same,Glucose absorption (100 uM) Aver.,C2C12 cells,15.10%
"Cl.N=C(N)NC(=Nc1ccc(Oc2ccccc2)cc1)NCCc1cccs1 [Example 36, N1-2-(thiophen-2-ylethyl)-N2-(4-phenoxyphenyl) biguanide hydrochloride]",Cholesterol (100 uM) Aver.,HepG2 cells [1],31.22
same,Cholesterol (500 uM) Aver.,HepG2 cells [1],34.74
same,Triglyceride (100 uM) Aver.,HepG2 cells [2],20.95
same,Triglyceride (500 uM) Aver.,HepG2 cells [2],17.89
same,Gluconeogenesis inhibition (100 uM) Aver.,HepG2 cells [3],1.54
same,Glucose absorption (100 uM) Aver.,C2C12 cells,4.50%
"Cl.N=C(N)NC(=Nc1cccc(Br)c1)NCCc1cccs1 [Example 34, N1-2-(thiophen-2-ylethyl)-N2-(3-bromophenyl) biguanide hydrochloride]",Cholesterol (100 uM) Aver.,HepG2 cells [1],26.00
same,Cholesterol (500 uM) Aver.,HepG2 cells [1],32.53
same,Triglyceride (100 uM) Aver.,HepG2 cells [2],26.57
same,Triglyceride (500 uM) Aver.,HepG2 cells [2],19.49
same,Gluconeogenesis inhibition (100 uM) Aver.,HepG2 cells [3],4.96
same,Glucose absorption (100 uM) Aver.,C2C12 cells,6.05%
"CN=C(NCCc1cccs1)NC(=N)N.Cl [Example 10, N1-2-(thiophen-2-ylethyl)-N2-methyl biguanide hydrochloride (isomer)]",Cholesterol (100 uM) Aver.,HepG2 cells [1],52.29
same,Triglyceride (100 uM) Aver.,HepG2 cells [2],76.16
same,Gluconeogenesis inhibition (100 uM) Aver.,HepG2 cells [3]; 100 µM,5.72
same,Glucose absorption (100 uM) Aver.,C2C12 cells,6.91%
"COc1ccc(OC)c(N=C(NCCc2cccs2)NC(=N)N)c1.Cl [Example 16, N1-2-(thiophen-2-ylethyl)-N2-(2,5-dimethoxy)phenyl biguanide hydrochloride]",Cholesterol (100 uM) Aver.,HepG2 cells [1]; hydrochloride,85.0
same,Cholesterol (500 uM) Aver.,HepG2 cells [1]; hydrochloride,58.5
same,Triglyceride (100 uM) Aver.,HepG2 cells [2]; hydrochloride,73.8
same,Triglyceride (500 uM) Aver.,HepG2 cells [2]; hydrochloride,51.3
same,Gluconeogenesis inhibition (100 uM) Aver.,"HepG2 cells [3]; hydrochloride, 100 µM",68.89
same,Glucose absorption (100 uM) Aver.,C2C12 cells; hydrochloride,147.3%
"Cc1ccc(N=C(NCCc2cccs2)NC(=N)N)cc1.Cl [Example 19, N1-2-(thiophen-2-ylethyl)-N2-(4-methylphenyl) biguanide hydrochloride]",Cholesterol (100 uM) Aver.,HepG2 cells [1],52.9
same,Cholesterol (500 uM) Aver.,HepG2 cells [1],29.6
same,Triglyceride (100 uM) Aver.,HepG2 cells [2],67.7
same,Triglyceride (500 uM) Aver.,HepG2 cells [2],46.4
same,Gluconeogenesis inhibition (100 uM) Aver.,HepG2 cells [3],74.32
same,Glucose absorption (100 uM) Aver.,C2C12 cells,89.16%
"CN=C(NCCc1cccs1)NC(=N)N.Cl [Example 11, N1-2-(thiophen-2-ylethyl)-N2-methyl biguanide hydrochloride (isomer)]",Cholesterol (100 uM) Aver.,HepG2 cells [1],71.14
same,Triglyceride (100 uM) Aver.,HepG2 cells [2],74.98
same,Gluconeogenesis inhibition (100 uM) Aver.,HepG2 cells [3]; 100 µM,25.03
same,Glucose absorption (100 uM) Aver.,C2C12 cells,321.21%
"CN=C(NCCc1cccs1)NC(=N)N.Cl [Example 5, N1-2-(thiophen-2-ylethyl)-N2-methyl biguanide hydrochloride]",Cholesterol (100 uM) Aver.,HepG2 cells [1]; hydrochloride,49.29
same,Cholesterol (500 uM) Aver.,HepG2 cells [1],41.36
same,Triglyceride (100 uM) Aver.,HepG2 cells [2]; hydrochloride,65.03
same,Triglyceride (500 uM) Aver.,HepG2 cells [2],41.59
same,Gluconeogenesis inhibition (100 uM) Aver.,"HepG2 cells [3]; hydrochloride, 100 µM",58.50
same,Glucose absorption (100 uM) Aver.,C2C12 cells; hydrochloride,350.4%
"CN(C)C(=N)N=C(N)N [Metformin, reference compound]",Cholesterol Aver.,HepG2 cells [1]; [4],65.31 and 74.50 and 85.91 and 70.69 and 73.31
same,Triglyceride Aver.,HepG2 cells [2]; [4],81.14 and 69.58 and 73.61 and 70.05 and 74.57
same,Gluconeogenesis inhibition Aver.,HepG2 cells [3]; [4],39.79 and 59.14 and 53.09 and 78.33 and 64.50
